Converted amounts (≈) assume the structure as drawn.

The test system of one experiment is S. Aureus (Rif-res). The experiment can be described thus: MBC, S. Aureus (Rif-res). Type of experiment: cell-based. Particulars: S. Aureus (Rif-res), rifampicin-resistant; minimum bactericidal concentration. On the procedure:
(§1) The antimicrobial activity of a compound or formulation according to the invention is determined by exposing a culture comprising a bacterial species to different concentrations of the compound or formulation and monitoring the effects on growth relative to a control culture not exposed to the compound. Any method known in the art may be used to assess bacterial growth. Antimicrobial effects are expressed as Minimal Inhibitory Concentration (MIC) and Minimum Bactericidal Concentration (MBC).
(§2) The minimum bactericidal concentration (MBC) is defined as the concentration of antimicrobial agent from which no colonies grow on petri plates or in the medium. In practice, the MBC is arbitrarily defmed as the concentration at which a 1000-fold reduction in colony forming units is observed with respect to the original inoculum (survival of 0.1%). Typically, the wells from a MIC microliter plate using a 96-well inoculation grid into a fresh microliter plate containing 100 μL Mueller-Hinton broth per well. The MBC plates are incubated at 37° C. for 16-20 hrs and the MBC values are determined.
(§3) The antimicrobial activities of the compounds of the invention, expressed as MIC and MBC, were determined as described above, using as tester strains wild-type S. aureus, rifampicin-resistant S. aureus, wild-type E. coli, and E. coli cells that had been permeabilized.
In the case of “N-{5-benzo[g]quinolin-4-yl-3-[(diethylamino)methyl]-2-methylbenzyl}-N-ethyl-1-ethanamine”, the MBG worked out at 64 µg/mL.

Staying with this experiment, now noted: Staphylococcus aureus, read-out: MBG.
Consider `OCCCN1CCN(c2ccc(Nc3ccnc4cc5ccccc5cc34)cc2)CC1` [3{4-[4-(benzo[g]quinolin-4-yl-amino)phenyl]-1-piperazinyl}-1-propanol], for which the MBC was determined as 8 µg/mL (≈ 19.4 µM).

Turning to `CCCCC(C)Nc1ccnc2cc3ccccc3cc12` (centres unmarked) [N-(1-methylpentyl)benzo[g]quinolin-4-amine], the MBC came out at 16 µg/mL (≈ 57.5 µM).

Take `c1ccc2cc3c(Nc4ccc(N5CCCCCC5)cc4)ccnc3cc2c1` [N-[4-(1-azepanyl)phenyl]benzo[g]quinolin-4-amine]: the MBC was found to be 1 µg/mL (≈ 2.72 µM).

The subject of the next experiment is E. coli (BAS). As to the kind of experiment: MIC, broth microdilution, E. coli (BAS). It counts as cell-based.
Conditions: not given
On the procedure: as §1
(§4) The MIC is expressed as a range between the concentration at which no growth is observed and the concentration of the dilution which immediately follows.
(§5) Typically, MIC is measured using a broth microdilution assay as follows. Dilution of candidate antimicrobial compounds in culture medium is performed in a sterile, covered 96-well microtiter plate with flat bottom wells (Costar #9017). The final concentrations of the compounds are typically 100, 50, 25, 12.5, 6.25, 3.12, 1.56, 0.78, 0.39, 0.20, 0.10, and 0.05 μg/mL, respectively. Culture medium only (containing no bacteria) is also included as a negative control for each plate. Ampicillin and rifamnpin are used as positive controls against all bacterial strains in every experiment.
(§6) The overnight culture of a single colony is diluted in sterile medium so that, after inoculation, each well contains approximately 5×10^5CFU/mL. Within 15 minutes of preparation, […] of the adjusted inoculum suspension is added to the microliter plate. Each well is diluted with an equal volume of the antimicrobial compounds or control solution. The inoculated microtiter plate is typically incubated at 35° C. for 16-20 hours. The turbidity of each well is determined by measuring the absorbance at 595 nm using a BioRad Model 3550-UV microplate reader.
as §3
For the compound “N-{5-benzo[g]quinolin-4-yl-3-[(diethylamino)methyl]-2-methylbenzyl}-N-ethyl-1-ethanamine”, the MIC is 16 µg/mL.

Staying with this experiment, now noted: Escherichia coli, read-out: MIC.
Regarding `OCCCN1CCN(c2ccc(Nc3ccnc4cc5ccccc5cc34)cc2)CC1` [3{4-[4-(benzo[g]quinolin-4-yl-amino)phenyl]-1-piperazinyl}-1-propanol], the MIC turned out to be 8 µg/mL (≈ 19.4 µM).

With `CCCCC(C)Nc1ccnc2cc3ccccc3cc12` (centres unmarked) [N-(1-methylpentyl)benzo[g]quinolin-4-amine], the MIC was 8 µg/mL (≈ 28.7 µM).

With `c1ccc2cc3c(Nc4ccc(N5CCCCCC5)cc4)ccnc3cc2c1` [N-[4-(1-azepanyl)phenyl]benzo[g]quinolin-4-amine], the MIC was above 64 µg/mL.

Another experiment deals with E. coli (BAS). The experiment can be described thus: MBC, E. coli (BAS). It counts as cell-based. Particulars: Escherichia coli, minimum bactericidal concentration, read-out: MBG. How it is done:
as §1, §2, §3
For `OCCCN1CCN(c2ccc(Nc3ccnc4cc5ccccc5cc34)cc2)CC1` [3{4-[4-(benzo[g]quinolin-4-yl-amino)phenyl]-1-piperazinyl}-1-propanol], the MBC was determined as 8 µg/mL (≈ 19.4 µM).

`CCCCC(C)Nc1ccnc2cc3ccccc3cc12` (centres unmarked) [N-(1-methylpentyl)benzo[g]quinolin-4-amine]: the MBC was found to be 16 µg/mL (≈ 57.5 µM).

For the compound `c1ccc2cc3c(Nc4ccc(N5CCCCCC5)cc4)ccnc3cc2c1` [N-[4-(1-azepanyl)phenyl]benzo[g]quinolin-4-amine], the MBC was above 64 µg/mL.

The same experiment, now with this note: minimum bactericidal concentration.
“N-{5-benzo[g]quinolin-4-yl-3-[(diethylamino)methyl]-2-methylbenzyl}-N-ethyl-1-ethanamine”: the MBG turned out to be 16 µg/mL.

The test system of the next experiment is S. Aureus (Rif-res). As to the kind of experiment: MIC, broth microdilution, S. Aureus (Rif-res). Type of experiment: cell-based. The note with it: S. Aureus (Rif-res), rifampicin-resistant. How it is done: as §1, §4, §5, §6, §3
As to “N-{5-benzo[g]quinolin-4-yl-3-[(diethylamino)methyl]-2-methylbenzyl}-N-ethyl-1-ethanamine”, the MIC is 32 µg/mL.

The same experiment, now with this note: Staphylococcus aureus.
The compound `OCCCN1CCN(c2ccc(Nc3ccnc4cc5ccccc5cc34)cc2)CC1` [3{4-[4-(benzo[g]quinolin-4-yl-amino)phenyl]-1-piperazinyl}-1-propanol] came in with an MIC of 8 µg/mL (≈ 19.4 µM).

Compound `CCCCC(C)Nc1ccnc2cc3ccccc3cc12` (centres unmarked) [N-(1-methylpentyl)benzo[g]quinolin-4-amine] gave an MIC of 8 µg/mL (≈ 28.7 µM).

Compound `c1ccc2cc3c(Nc4ccc(N5CCCCCC5)cc4)ccnc3cc2c1` [N-[4-(1-azepanyl)phenyl]benzo[g]quinolin-4-amine] registered an MIC of 1 µg/mL (≈ 2.72 µM).

The test system of another experiment is E. coli (MCR106). As to the kind of experiment: MIC, broth microdilution, E. coli (MCR106). Type of experiment: cell-based. Particulars: E. coli (MCR106). On the procedure:
as §1, §4, §5, §6, §3
“N-{5-benzo[g]quinolin-4-yl-3-[(diethylamino)methyl]-2-methylbenzyl}-N-ethyl-1-ethanamine” registered an MIC of 64 µg/mL.

The same experiment, now with this note: Escherichia coli.
On to `OCCCN1CCN(c2ccc(Nc3ccnc4cc5ccccc5cc34)cc2)CC1` [3{4-[4-(benzo[g]quinolin-4-yl-amino)phenyl]-1-piperazinyl}-1-propanol], for which the MIC amounted to 16 µg/mL (≈ 38.8 µM).

As for `CCCCC(C)Nc1ccnc2cc3ccccc3cc12` (centres unmarked) [N-(1-methylpentyl)benzo[g]quinolin-4-amine], the MIC was above 64 µg/mL.

For `c1ccc2cc3c(Nc4ccc(N5CCCCCC5)cc4)ccnc3cc2c1` [N-[4-(1-azepanyl)phenyl]benzo[g]quinolin-4-amine], the MIC was above 64 µg/mL.

The test system of a further experiment is E. coli (MCR106). The experiment can be described thus: MBC, E. coli (MCR106). Type of experiment: cell-based. Particulars: Escherichia coli, minimum bactericidal concentration, read-out: MBG. On the procedure: as §1, §2, §3
`OCCCN1CCN(c2ccc(Nc3ccnc4cc5ccccc5cc34)cc2)CC1` [3{4-[4-(benzo[g]quinolin-4-yl-amino)phenyl]-1-piperazinyl}-1-propanol]: the MBC worked out at 64 µg/mL (≈ 155 µM).

For the compound `CCCCC(C)Nc1ccnc2cc3ccccc3cc12` (centres unmarked) [N-(1-methylpentyl)benzo[g]quinolin-4-amine], the MBC was above 64 µg/mL.

For `c1ccc2cc3c(Nc4ccc(N5CCCCCC5)cc4)ccnc3cc2c1` [N-[4-(1-azepanyl)phenyl]benzo[g]quinolin-4-amine], the MBC was above 64 µg/mL.

Still in this experiment, the particulars now being: minimum bactericidal concentration.
In turn, “N-{5-benzo[g]quinolin-4-yl-3-[(diethylamino)methyl]-2-methylbenzyl}-N-ethyl-1-ethanamine” came in with an MBG above 64 µg/mL.

In another experiment the test system is S. Aureus. The experiment can be described thus: MBC, S. Aureus. It counts as cell-based. Particulars: S. Aureus; minimum bactericidal concentration. How it is done: as §1, §2, §3
As to “N-{5-benzo[g]quinolin-4-yl-3-[(diethylamino)methyl]-2-methylbenzyl}-N-ethyl-1-ethanamine”, the MBG turned out to be 64 µg/mL.

Staying with this experiment, now noted: Staphylococcus aureus, read-out: MBG.
For `OCCCN1CCN(c2ccc(Nc3ccnc4cc5ccccc5cc34)cc2)CC1` [3{4-[4-(benzo[g]quinolin-4-yl-amino)phenyl]-1-piperazinyl}-1-propanol], the MBC worked out at 32 µg/mL (≈ 77.6 µM).

On to `CCCCC(C)Nc1ccnc2cc3ccccc3cc12` (centres unmarked) [N-(1-methylpentyl)benzo[g]quinolin-4-amine], for which the MBC was determined as 16 µg/mL (≈ 57.5 µM).

`c1ccc2cc3c(Nc4ccc(N5CCCCCC5)cc4)ccnc3cc2c1` [N-[4-(1-azepanyl)phenyl]benzo[g]quinolin-4-amine]: the MBC was determined as 2 µg/mL (≈ 5.44 µM).

In the next experiment the test system is S. Aureus. As to the kind of experiment: MIC, broth microdilution, S. Aureus. It counts as cell-based. The note with it: S. Aureus. How it is done:
as §1, §4, §5, §6, §3
The compound “N-{5-benzo[g]quinolin-4-yl-3-[(diethylamino)methyl]-2-methylbenzyl}-N-ethyl-1-ethanamine” registered an MIC of 64 µg/mL.

The same experiment, now with this note: Staphylococcus aureus; S. Aureus; read-out: MIC.
Turning to `OCCCN1CCN(c2ccc(Nc3ccnc4cc5ccccc5cc34)cc2)CC1` [3{4-[4-(benzo[g]quinolin-4-yl-amino)phenyl]-1-piperazinyl}-1-propanol], the MIC amounted to 32 µg/mL (≈ 77.6 µM).

With `CCCCC(C)Nc1ccnc2cc3ccccc3cc12` (centres unmarked) [N-(1-methylpentyl)benzo[g]quinolin-4-amine], the MIC is 16 µg/mL (≈ 57.5 µM).

As for `c1ccc2cc3c(Nc4ccc(N5CCCCCC5)cc4)ccnc3cc2c1` [N-[4-(1-azepanyl)phenyl]benzo[g]quinolin-4-amine], the MIC came to 2 µg/mL (≈ 5.44 µM).

The values are drawn from patent US6274596A, “Benzoquinoline derivatives useful as antibacterial agents” (priority 1999, dated 2001).
